The values that follow come from US11059778B2, “Cannabinoid receptor CB2 ligand 4-(aminomethyl)-N, N-dialkylanilines” (UNIVERSITY OF PITTSBURGH—OF THE COMMONWEALTH SYSTEM OF …, priority 2015, dated 2021).

Assay [1] concerns the target T1, human CB2 receptors (Homo sapiens, UniProt P34972).
T1 construct: expressed in transfected cells
As to the kind of experiment: [3H]CP-55,940 radioligand competition binding assay, CB2. The conditions noted are these: for Ki: CHO cell membranes, [3H]CP-55,940 displacement. The method, then: (§1) Binding assay. The bioassay is carried out using the Perkin Elmer 96-well Top Counter. This bioassay is also known as a competition binding assay and the biological evaluation is to determine the CB receptor binding affinity (Ki) of the screened ligands by displacing [^3H]-CP-55940 (or other radioligands). The brief procedure is given below.
(§2) Perkin Elmer 96-well TopCounter is used at PMLSC and in our laboratory to determine the CB receptor binding affinity (Ki) of the in-silico screened ligands by displacing [^3H]-CP-55,940 (or other radioligands). In competition binding experiments, the tested compound dilutions are carried out in triplicate in TME buffer (25 mM Tris, 5 mM MgCl2, 1 mM EDTA) containing 0.1% (w/v) fatty acid free bovine serum albumin (BSA), pH 7.4. Various concentrations of the tested compound are added in the same volume to 0.5 nM [^3H]CP-55,940. TME buffer and cell membrane preparations expressing CB receptors (2.5 μg per well) are added to a final volume of 200 μL. For the saturation binding experiments, varying concentrations of [^3H]CP-55,940 (0.05-1.5 nM) with or without 2 μM of unlabeled ligands (CP-55,940 or WIN-55,212-2) are incubated with the receptor membrane preparations to determine Kd and nonspecific binding. After the binding suspensions are incubated at 30° C. for 1 hr, the reaction is terminated by rapid filtration through microfiltration plates coated with 0.5% polyethylenimine (Unifilter GF/B filterplate, PerkinElmer) followed by 5 washes with ice cold TME buffer containing 0.5% BSA on a Packard Filtermate Harvester (PerkinElmer). The plates are then dried overnight and 30 μl MicroScint 0 scintillation cocktail are added to each well of the dried filter plates. Then the bound radioactivity is counted using a Perkin Elmer 96-well TopCounter. The Ki is calculated by using nonlinear regression analysis (Prism 5; GraphPad Software Inc., San Diego, Calif.), with the Kd values for [^3H]CP-55,940 determined from saturation binding experiments. This assay is used for determining binding affinity parameters (Ki) of ligand-receptor interactions for the CB receptor.
(§3) The affinities of the synthesized ligands were determined in radioligand binding studies at human CB1 and CB2 receptors using [3H](—)-cis-3-[2-hydroxy-4-(1,1 dimethylheptyl)phenyl]-trans-4-(3-hydroxypropyl) cyclohexanol (CP55,940) as a CB receptor radioligand. As a source for human CB1 and CB2 receptors, membrane preparations of Chinese hamster ovary (CHO) cells stably expressing the respective receptor subtype were utilized (50 μg of protein/vial). CB2 selective ligand SR144528 (CB2 inverse agonist) and CB1 ligand SR141716 (CB1 inverse agonist) were used as positive controls, respectively, along with the tested compounds in bioassays experiments. Only compounds with high CB2 receptor binding potency was chosen to carry out the CB1 binding assay. CB ligand competition binding assay was carried out as described previously in Gertsch, J., et al., Beta-caryophyllene is a dietary cannabinoid. Proc Natl Acad Sci USA 2008, 105 (26), 9099-104. Briefly, non-radioactive (or cold) ligands (synthesized derivatives and reference ligands) were diluted in a binding buffer (50 mM Tris-HCl (pH 7.4), 5 mM MgC12, 2.5 mM EGTA, and 0.1% (w/v) fatty acid free BSA), supplemented with 10% dimethyl sulfoxide and 0.4% methyl cellulose. Each assay plate well contained a total of 200 μL of reaction mixture composed of 5 μg of CB1 (or 2.5 μg CB2) membrane protein, labeled [3H]-CP-55,940 ligand at a final concentration of 2.5 nM, and the unlabeled ligand at its varying dilutions as stated above. Plates were incubated at 30° C. for 1 hour with gentle shaking.
(§4) The reaction was terminated by rapid filtration through Unifilter GF/B filter plates using a Unifilter Cell Harvester (PerkinElmer). After the plate was allowed to dry overnight, 30 μL MicroScint-0 cocktail (PerkinElmer) was added to each well, and the radioactivity was counted using a PerkinElmer TopCounter. […]

Assay [2] has as its target T2, human CB1 receptors (Homo sapiens, UniProt P21554).
T2 construct: expressed in transfected cells
As to the kind of experiment: [3H]CP-55,940 radioligand competition binding assay, CB1. Particulars: CHO cell membranes, [3H]CP-55,940 displacement. As to the method: as §1, §2, §3, §4

For assay [3], the system named is RANKL-induced osteoclast differentiation of C57BL/6 mouse bone marrow cells. As to the kind of experiment: In-vitro osteoclast formation assay (RANKL-induced, TRAP staining). It counts as cell-based. Particulars: for effect on RANKL-induced osteoclast formation (in words): RANKL 100 ng/mL, M-CSF 30 ng/mL, concentration series up to 10 μM, FIG. 5; for inhibition at 10 µM: Mus musculus, Osteoclast, read-out: inhibition rates of osteoclast formation. The method, then:
FIGS. 5A and 5B relate to […]. Anti-osteoclastogenesis activity of the synthesized CB2 ligands. […] FIG. 5B: BM cells were seeded at a density of 2×10^5 cells/well in 96-well plates and treated with or without RANKL (100 ng/mL) and M-CSF (30 ng/mL). CB2 compounds were added at the indicated concentrations for 10 days and stained for TRAP expression. Data is the mean of three experiments carried out in triplicates. (B) Microscopic photographs of cells for compound 15 (magnification 100×).
Bone marrow (BM) cells were obtained from the tibia and femur of 4- to 6-week old C57BL/6 mice. To examine the effects of our selective CB2 ligands, BM cells were seeded at 2×10^5 cells/well in 96-well plates in 100 μIL/well Alpha-MEM media (Gibco Laboratories, Grand Island, N.Y.) containing 15% fetal bovine serum (FBS) (Gibco Laboratories, Grand Island, N.Y.), 30 ng/mL M-CSF (R&D Systems, USA), and 100 ng/mL RANKL (ProsPec, East Brunswick, N.J.). Plates were cultured for 7-10 days. Half media was changed every third day with or without CB2 ligands. At the end of the experiment, cells were fixed and stained with tartrate-resistant acid […] (TRAP) (Sigma-Aldrich, USA), according to manufacturer's protocol. TRAP-positive cells with ≥3 nuclei were counted as osteoclasts ((a) Feng, R., et al., SDX-308, a nonsteroidal anti-inflammatory agent, inhibits NF-kappaB activity, resulting in strong inhibition of osteoclast formation/activity and multiple myeloma cell growth. Blood 2007, 109 (5), 2130-8; (b) Yu, M., et al., Curcumol suppresses RANKL-induced osteoclast formation by attenuating the JNK signaling pathway. Biochem Biophys Res Commun 2014, 447 (2), 364-70; (c) Feng, R., et al., KD5170, a novel mercaptoketone-based histone deacetylase inhibitor, exerts antimyeloma effects by DNA damage and mitochondrial signaling. Mol Cancer Ther 2008, 7 (6), 1494-505.).

“Also recorded” adds a separate entry of the source.

T1 sequence (P34972 whole entry): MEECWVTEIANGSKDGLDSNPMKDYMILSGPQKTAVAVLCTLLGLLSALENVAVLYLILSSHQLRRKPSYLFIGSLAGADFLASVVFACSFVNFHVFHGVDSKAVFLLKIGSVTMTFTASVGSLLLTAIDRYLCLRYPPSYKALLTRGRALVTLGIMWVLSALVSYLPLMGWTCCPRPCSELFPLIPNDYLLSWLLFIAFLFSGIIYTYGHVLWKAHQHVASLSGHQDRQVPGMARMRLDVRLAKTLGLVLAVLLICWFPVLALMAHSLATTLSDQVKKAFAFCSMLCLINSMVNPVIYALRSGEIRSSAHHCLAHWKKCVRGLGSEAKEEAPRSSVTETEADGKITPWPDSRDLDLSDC
T2 sequence (P21554 whole entry): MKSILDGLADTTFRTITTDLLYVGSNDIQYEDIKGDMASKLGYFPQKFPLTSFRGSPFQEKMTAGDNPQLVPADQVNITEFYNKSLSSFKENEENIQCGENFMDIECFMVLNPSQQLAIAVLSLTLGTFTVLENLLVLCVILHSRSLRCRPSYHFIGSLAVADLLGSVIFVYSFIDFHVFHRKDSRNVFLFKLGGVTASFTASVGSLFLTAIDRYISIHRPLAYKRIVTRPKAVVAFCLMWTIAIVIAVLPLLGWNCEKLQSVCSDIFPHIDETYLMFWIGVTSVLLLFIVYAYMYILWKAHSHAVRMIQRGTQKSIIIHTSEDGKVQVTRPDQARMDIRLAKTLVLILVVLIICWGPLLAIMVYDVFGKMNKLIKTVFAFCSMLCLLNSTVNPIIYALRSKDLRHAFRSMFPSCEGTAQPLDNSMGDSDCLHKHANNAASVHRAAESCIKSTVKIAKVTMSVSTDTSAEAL

Turning to `CCN(CC)c1ccc(CN(Cc2cc(OC)c(OC)c(OC)c2)C(=O)c2cccs2)cc1` [Compound 11, N-(4-(diethylamino)benzyl)-N-(3,4,5-trimethoxybenzyl)thiophene-2-carboxamide], in assay [1], the “SI: selectivity index for CB2, calculated as Ki(CB1)/Ki(CB2) ratio” value is reported as 31 and the Ki was determined as 107 nM. The affinity in assay [2], expressed as Ki, was 3.28 µM. Besides, in assay [3], the “effect on RANKL-induced osteoclast formation (in words)” value (“effect” below) was “induction of osteoclast formation at higher doses; also recorded: low effect in inducing the osteoclast formation at higher doses”.
Turning to `CCN(CC)c1ccc(CN(Cc2cc(OC)c(OC)c(OC)c2)S(=O)(=O)/C=C/c2ccccc2)cc1` [Compound 15, (E)-N-(4-(diethylamino)benzyl)-2-phenyl-N-(3,4,5-trimethoxybenzyl)ethene-1-sulfonamidebenzenesulfonamide], in assay [1], the “SI: selectivity index for CB2, calculated as Ki(CB1)/Ki(CB2) ratio” value is 145 and the Ki was 138 nM. The same compound had an inhibitory constant (Ki) in assay [2] of over 20 µM. In addition, in assay [3], the inhibition at 10 µM was over 95% and the “effect” value is given as “concentration-dependent inhibition of osteoclast formation; also recorded: inhibited the RANKL-induced osteoclast differentiation in a dose-dependent manner”.
As to `CCN(CC)c1ccc(CN(Cc2cc(OC)c(OC)c(OC)c2)S(=O)(=O)c2ccc(C=O)cc2)cc1` [Compound 18, N-(4-(diethylamino)benzyl)-4-formyl-N-(3,4,5-trimethoxybenzyl)benzenesulfonamide], in assay [1], the “SI: selectivity index for CB2, calculated as Ki(CB1)/Ki(CB2) ratio” value is listed as 9 and the affinity, expressed as Ki, was 242 nM. The compound further displayed a Ki in assay [2] of 2.29 µM. Besides, in assay [3], the inhibition at 10 µM was over 95% and the “effect” value is recorded as “concentration-dependent inhibition of osteoclast formation; also recorded: inhibited the RANKL-induced osteoclast differentiation in a dose-dependent manner”.
